Source: patent US11858921B2, “Uracil derivatives as TRPA1 inhibitors” (Boehringer Ingelheim International GmbH, priority 2021, dated 2024)

Columns and labels:
[1] = biological target: T1, human TRPA1 ion channel (Homo sapiens, UniProt O75762); test: Assay A: TRPA1 assay (FLIPR calcium, AITC agonism); type: cell-based; details: read-out: hTRPA1 IC50
T1 construct: host or cells: HEK293
Method: A human HEK293 cell line over-expressing the human TRPA1 ion channel (Perkin Elmer, Product No. AX-004-PCL) is used as a test system for compound efficacy and potency. Compound activity is determined by measuring the effect of compounds on intracellular calcium concentration induced by AITC (Allylisothiocyanat) agonism in a FLIPRtetra system (Molecular Devices).
The cells are obtained as frozen cells in cryo-vials and stored until use at −150° C.
Cells are grown in culture medium (MEM/EBSS medium with 10% FCS and 0.4 mg/ML Geneticin). […] For sub-culturing cells are detached from flasks by Versene. At the day before the assay, cells are detached, washed twice with medium (MEM/EBSS medium with 10% FCS) and 20000 cells in 20 μl/well are seeded to Poly D-Lysin biocoated 384-well plates (black, clear bottom, Cat. 356697) from Corning. Plates are incubated for 24 hours at 37° C./5% CO2 before use in the assay.
The test compounds are dissolved in 100% DMSO at a concentration of 10 mM and in a first step diluted in DMSO to a concentration of 5 mM, followed by serial dilution steps in 100% DMSO. Dilution factor and number of dilution steps may vary according to needs. Typically 8 different concentrations by 1:5 dilutions are prepared, further intermediate dilutions (1:20) of the substances are carried out with HBSS/HEPES buffer (1×HEPES, Cat. 14065 from Gibco, 20 mM HEPES, Cat. 83264 from SIGMA, 0.1% BSA Cat. 11926 from Invitrogen, pH 7.4
At the assay day cells are washed 3× with assay puffer, 20 μL buffer remaining in the wells after washing. 10 μL Ca6 kit (Cat. R8191 MolecularDevices) loading buffer in HBSS/HEPES is added to the cells and the plates are incubated with lid for 120 minutes at 37°/5% CO2. 10 μL of compound or controls in HBSS/HEPES buffer/5% DMSO from the intermediate dilution plate are carefully added to the wells. […] Finally 10 μL of the agonist AITC 50 μM dissolved in HBSS/HEPES buffer/0.05% DMSO (final concentration 10 μM) is added to the wells followed by an additional read on the FLIPRtetra device for 10 minutes. The area under the signal curve (AUC) after AITC addition is used for IC50/% inhibition calculations Data evaluation and calculation:
Each assay microtiter plate contains wells with vehicle (1% DMSO) controls instead of compound as controls for AITC induced luminescence (100% CTL; high controls) and wells with vehicle controls without AITC as controls for non-specific changes in luminescence (0% CTL; low controls).
The analysis of the data is performed by the calculation of the area under signal curve of the individual wells. Based on this values the % value for the measurement of each substance concentration is calculated (AUC(sample)−AUC(low))*100/(AUC(high)−AUC(low)) using MegaLab software (in house development). The IC50 values are calculated from the % control values using MegaLab software. Calculation: [y=(a−d)/(1+(x/c)^b)+d], a=low value, d=high value; x=conc M; c=IC50 M; b=hill; y=% ctrl

[2] = Assay C: Hepatocyte clearance; type: in vitro ADME, human; details: hepatocyte suspension, 5% species serum, test compound 1 μM, up to 6 h
Method: Assay C: Hepatocyte Clearance
The metabolic degradation of the test compound is assayed in a hepatocyte suspension. Hepatocytes (cryopreserved) are incubated in Dulbecco's modified eagle medium (supplemented with 3.5 μg glucagon/500 mL, 2.5 mg insulin/500 mL and 3.75 mg/500 mL hydrocortison) containing 5% species serum.
The cells are incubated for six hours (incubator, orbital shaker) and samples (25 μl) are taken at 0, 0.5, 1, 2, 4 and 6 hours. Samples are transferred into acetonitrile and pelleted by centrifugation (5 min). The supernatant is transferred to a new 96-deepwell plate, evaporated under nitrogen and resuspended.
Decline of parent compound is analyzed by HPLC-MS/MS
CLint is calculated as follows CL_[…]=Dose/AUC=(CO/CD)/(AUD+clast/k)×1000/60. C0: initial concentration in the incubation [μM], CD: cell density of vital cells [10e6 cells/mL], AUD: area under the data [μM×h], clast: concentration of last data point [μM], k: slope of the regression line for parent decline [h−1].
The calculated in vitro hepatic intrinsic clearance can be scaled up to the intrinsic in vivo hepatic Clearance and used to predict hepatic in vivo blood clearance (CL) by the use of a liver model (well stirred model). CL_[…]_INVIVO [ml/min/kg]=(CL_[…] [μL/min/10e6 cells]×hepato-cellularity [10e6 cells/g liver]×liver factor [g/kg bodyweight])/1000 CL[ml/min/kg]=CL_[…]_INVIVO [ml/min/kg]×hepatic blood flow [ml/min/kg]/(CL_[…]_INVIVO [ml/min/kg]+hepatic blood flow [ml/min/kg]) Qh[%]=CL[ml/min/kg]/hepatic blood flow [ml/min/kg])
(§1) Hepatocellularity, human: 120×10e6 cells/g liver
(§2) Liver factor, human: 25.7 g/kg bodyweight
(§3) Blood flow, human: 21 ml/(min×kg)

[3] = Assay B: Microsomal clearance; type: in vitro ADME, human; details: pooled liver microsomes 1 mg/ml, test compound 1 μM, 37° C., NADPH
Method: Assay B: Microsomal Clearance:
The metabolic degradation of the test compound is assayed at 37° C. with pooled liver microsomes. The final incubation volume of 100 μl per time point contains TRIS buffer pH 7.6 at RT (0.1 M), magnesium chloride (5 mM), microsomal protein (1 mg/ml) and the test compound at a final concentration of 1 μM.
Following a short preincubation period at 37° C., the reactions are initiated by addition of beta-nicotinamide adenine dinucleotide phosphate, reduced form (NADPH, 1 mM) and terminated by transferring an aliquot into solvent after different time points (0, 5, 15, 30, 60 min). Additionally, the NADPH-independent degradation is monitored in incubations without NADPH, terminated at the last time point. The [%] remaining test compound after NADPH independent incubation is reflected by the parameter c(control) (metabolic stability). The quenched incubations are pelleted by centrifugation (10000 g, 5 min).
An aliquot of the supernatant is assayed by LC-MS/MS for the amount of parent compound. The half-life (t½ INVITRO) is determined by the slope of the semilogarithmic plot of the concentration-time profile.
The intrinsic clearance (CL_[…]) is calculated by considering the amount of protein in the incubation: CL_[…] [μl/min/mg protein]=(Ln 2/(half-life [min]*protein content [mg/ml]))*1000 CL_[…]_INVIVO [ml/min/kg]=(CL_[…] [μL/min/mg protein]×MPPGL [mg protein/g liver]×liver factor [g/kg bodyweight])/1000 Qh[%]=CL[ml/min/kg]/hepatic blood flow [ml/min/kg])
as §1, §2, §3

T1 sequence (O75762 whole entry): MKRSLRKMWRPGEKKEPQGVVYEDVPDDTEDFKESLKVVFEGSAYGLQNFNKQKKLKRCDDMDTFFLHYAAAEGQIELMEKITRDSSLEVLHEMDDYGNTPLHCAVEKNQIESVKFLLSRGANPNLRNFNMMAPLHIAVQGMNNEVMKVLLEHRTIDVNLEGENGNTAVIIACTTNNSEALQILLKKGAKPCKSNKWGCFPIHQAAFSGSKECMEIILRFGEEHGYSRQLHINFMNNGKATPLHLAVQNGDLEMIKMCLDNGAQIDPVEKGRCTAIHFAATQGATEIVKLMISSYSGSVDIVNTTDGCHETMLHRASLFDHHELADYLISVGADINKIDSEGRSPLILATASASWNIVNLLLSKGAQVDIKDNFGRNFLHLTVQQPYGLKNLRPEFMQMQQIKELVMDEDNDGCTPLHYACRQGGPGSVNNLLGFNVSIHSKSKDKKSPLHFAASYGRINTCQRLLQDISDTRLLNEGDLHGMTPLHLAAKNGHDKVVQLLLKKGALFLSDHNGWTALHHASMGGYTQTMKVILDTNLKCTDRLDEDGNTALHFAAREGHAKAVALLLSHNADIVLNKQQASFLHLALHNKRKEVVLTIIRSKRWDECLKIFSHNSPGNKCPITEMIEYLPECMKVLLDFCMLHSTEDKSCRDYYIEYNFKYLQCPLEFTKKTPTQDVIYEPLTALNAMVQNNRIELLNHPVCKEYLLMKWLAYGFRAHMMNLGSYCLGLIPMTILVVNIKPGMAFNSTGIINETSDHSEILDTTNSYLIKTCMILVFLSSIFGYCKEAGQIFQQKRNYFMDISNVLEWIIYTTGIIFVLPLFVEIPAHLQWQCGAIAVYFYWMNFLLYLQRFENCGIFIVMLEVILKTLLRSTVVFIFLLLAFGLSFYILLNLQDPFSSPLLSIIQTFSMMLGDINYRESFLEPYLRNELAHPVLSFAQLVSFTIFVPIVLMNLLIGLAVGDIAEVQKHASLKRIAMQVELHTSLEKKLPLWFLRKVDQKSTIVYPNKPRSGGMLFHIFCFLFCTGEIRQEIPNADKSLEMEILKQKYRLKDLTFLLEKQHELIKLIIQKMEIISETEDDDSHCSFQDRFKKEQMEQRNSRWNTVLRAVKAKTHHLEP

| IC50 [1] [nM] | human Hepatocytes [% Qh] [2] [% Qh] | human LM [% Qh] [3] [% Qh] | SMILES |
| --- | --- | --- | --- |
| 8 | 17 | 43 | Cn1c(=O)c(C(N)=O)cn(Cc2nc(C[C@H](O)c3cc4ccc(F)cc4s3)no2)c1=O [Example 3] |
| 15 | 21 | <23 | Cn1c(=O)c(C(N)=O)cn(Cc2nc(C[C@H](O)c3cc4cc(Cl)ccc4o3)no2)c1=O [Example 4] |
| 57 | 17 | 24 | Cn1c(=O)c(C(N)=O)cn(Cc2nc(C[C@H](O)c3ccc(I)cc3)no2)c1=O [Example 6] |
| 84 | 8 | <23 | Cc1ccc([C@@H](O)Cc2noc(Cn3cc(C(N)=O)c(=O)n(C)c3=O)n2)cc1 [Example 7] |
| 6 | 24 | <23 | Cn1c(=O)c(C(N)=O)cn(Cc2nc(C[C@H](O)c3cc4ccccc4s3)no2)c1=O [Example 2] |
| 33 | 15 | <23 | Cn1c(=O)c(C(N)=O)cn(Cc2nc(C[C@H](O)c3cc4cc(F)ccc4o3)no2)c1=O [Example 5] |
| 38 | 15 | <23 | Cn1c(=O)c(C(N)=O)cn(Cc2nc(C[C@H](O)c3ccc(Cl)cc3)no2)c1=O [Example 1, 1-({3-[(2S)-2-(4-chlorophenyl)-2-hydroxyethyl]-1,2,4-oxadiazol-5-yl}methyl)-3-methyl-2,4-dioxo-1,2,3,4-tetrahydropyrimidine-5-carboxamide] |
